Results as given in PubChem BioAssay (NCI).
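96-well plates; 48 h exposure; 5 concentrations. Endpoints by linear interpolation between flanking doses. Not reached: highest tested concentration assigned. Here, GI50 denotes the concentration required for 50% inhibition of growth. TGI is the concentration that stops growth completely.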

Key:
Experiment in all cases: DTP human tumour cell line panel, 48 h
UACC-62 melanoma = system: UACC-62 melanoma
KM12 colon = system: KM12 colon
COLO 205 colon = system: COLO 205 colon
EKVX NSCLC = system: EKVX NSCLC
CAKI-1 renal = system: CAKI-1 renal
NCI-H460 lung = system: NCI-H460 lung
LOX IMVI melanoma = system: LOX IMVI melanoma
NCI-H23 lung = system: NCI-H23 lung
SW-620 colon = system: SW-620 colon
CCRF-CEM leukemia = system: CCRF-CEM leukemia

Structure (SMILES) | TGI (UACC-62 melanoma) [µM] | TGI (KM12 colon) [µM] | TGI (COLO 205 colon) [µM] | TGI (EKVX NSCLC) [µM] | TGI (CAKI-1 renal) [µM] | TGI (NCI-H460 lung) [µM] | TGI (LOX IMVI melanoma) [µM] | TGI (NCI-H23 lung) [µM] | TGI (SW-620 colon) [µM] | TGI (CCRF-CEM leukemia) [µM] | GI50 (UACC-62 melanoma) [µM] | GI50 (KM12 colon) [µM] | GI50 (COLO 205 colon) [µM] | GI50 (EKVX NSCLC) [µM] | GI50 (CAKI-1 renal) [µM] | GI50 (NCI-H460 lung) [µM] | GI50 (LOX IMVI melanoma) [µM] | GI50 (NCI-H23 lung) [µM] | GI50 (SW-620 colon) [µM] | GI50 (CCRF-CEM leukemia) [µM]
COC(=O)C(CCC1C=CCC1)N=Cc1ccccc1 (stereo not given) | > 100 | > 100 | > 100 | > 100 | > 100 | > 100 | > 100 | > 100 | > 100 | > 100 | – | – | – | – | – | – | – | – | – | –
CC(=O)C1=C(N=[N+]=[N-])c2cccc3cccc(c23)C1=O | 34.2 | 44.7 | 31.7 | 46.3 | 30.7 | 56.3 | 30.1 | 43.4 | 55.1 | 25.6 | – | – | – | – | – | – | – | – | – | –
NC1CC(=O)c2csc(Br)c21 (stereo not given) | 33.2 | > 57.9 | > 51.4 | 33.1 | 27.5 | > 67.4 | 29 | 30.8 | 24.8 | > 100 | – | – | – | – | – | – | – | – | – | –
NNC(=O)CNC(=O)CSc1nnc(COc2ccc(Cl)cc2)n1-c1ccccc1 | > 100 | > 100 | > 100 | > 100 | > 100 | > 100 | > 100 | > 100 | > 100 | > 100 | – | – | – | – | – | – | – | – | – | –
Cc1ccc2c(c1)NC(=O)CCSSCCC(=O)N2 | > 100 | > 100 | > 100 | > 100 | > 100 | > 100 | > 100 | > 100 | > 100 | > 100 | – | – | – | – | – | – | – | – | – | –
CC(=O)O[C@H]1C[C@]2(C)C(CCC3O[C@@]32C)[C@@]2(CC(c3ccoc3)OC2O)[C@@H]1C (stereo not given in full) | > 100 | > 100 | > 100 | > 100 | > 100 | > 100 | > 100 | > 100 | > 100 | 88.3 | – | – | – | – | – | – | – | – | – | –
O=P(O)(O)C(CSc1ccccc1)P(=O)(O)O | > 100 | > 100 | > 100 | > 100 | > 100 | > 100 | > 100 | > 100 | > 100 | > 100 | – | – | – | – | – | – | – | – | – | –
COC(=O)NCCc1[nH]nc2c1C(=O)C=C(Nc1ccccc1)C2=O | 34.8 | 62.2 | 37.5 | > 100 | > 100 | > 100 | 75.8 | 31.4 | > 100 | 51.1 | – | – | – | – | – | – | – | – | – | –
CC(=O)Oc1ccc2c(c1)c1c(=O)oc(N(C)C)nc1n2Cc1ccccc1 | > 100 | > 100 | > 100 | > 100 | > 73.3 | > 100 | > 100 | > 100 | > 100 | > 100 | – | – | – | – | – | – | – | – | – | –
CC(=O)Nc1ncc(Sc2ccccc2C(=O)O)s1 | > 100 | > 100 | > 100 | > 100 | > 100 | > 100 | > 100 | > 100 | > 100 | > 100 | – | – | – | – | – | – | – | – | – | –
O=C1c2cc3ccccc3cc2C2(c3ccc(Cl)cc3)N[C@H]3CCCC[C@@H]3N12 (stereo not given in full) | 35.2 | 48.2 | > 100 | 26.8 | 70.3 | 47.3 | 55.8 | 31.3 | 59.3 | > 100 | – | – | – | – | – | – | – | – | – | –
CN1C(c2ccccc2)=CC(=O)C(O)=C(c2ccccc2)S1(=O)=O | > 100 | > 100 | > 100 | > 100 | > 100 | > 100 | > 100 | > 100 | > 100 | > 100 | – | – | – | – | – | – | – | – | – | –
CC(C)CCC1(O)O[C@H]2C[C@H]3[C@@H]4CCC5CC(=O)C=C[C@]5(C)[C@H]4CC[C@]3(C)[C@H]2[C@@H]1C (stereo not given in full) | 28 | 26.5 | 27.8 | 34.7 | 28.1 | 22.2 | 26.3 | 14.8 | 26.4 | 10.3 | – | – | – | – | – | – | – | – | – | –
O=C1C2C=CC1C1C(=O)OC(=O)C21 (stereo not given) | > 100 | > 100 | > 100 | > 100 | > 100 | > 100 | > 100 | > 100 | > 100 | > 100 | – | – | – | – | – | – | – | – | – | –
COc1ccc2c3c1OC1C(=O)C=CC4(O)C(C2)NCC[C@@]314 (stereo not given in full) | 12.7 | 8.59 | 3.02 | 7.95 | 8.49 | 13.2 | 5.15 | 5.64 | 5.81 | 2.76 | – | – | – | – | – | – | – | – | – | –
O=C1OCC(C#Cc2ccccc2)=C1Cl | 18.8 | 12.1 | 7.79 | 6.17 | 26.7 | > 100 | 14.9 | 26.9 | 5.07 | 18.1 | 6.21 | 2.65 | 2.33 | 1.91 | 3.27 | 7.59 | 4.31 | 14 | 0.83 | 0.222
CCCN1C(=O)CCC2=C1CCc1c2ccc(Cl)c1Cl | 5.44 | > 100 | > 100 | > 100 | > 100 | > 100 | > 100 | > 100 | > 100 | > 100 | – | – | – | – | – | – | – | – | – | –
CC(=O)OCC1OC(n2c(N)c(C#N)c(-c3ccccc3)c(C#N)c2=S)C(OC(C)=O)C(OC(C)=O)C1OC(C)=O (stereo not given) | > 100 | > 100 | > 100 | > 100 | > 100 | > 100 | > 100 | > 100 | > 100 | > 100 | – | – | – | – | – | – | – | – | – | –
COC(=O)CC1(CNC(=O)OCc2ccccc2)OCCO1 | > 100 | > 100 | > 100 | > 100 | > 100 | > 100 | > 100 | > 100 | > 100 | > 100 | – | – | – | – | – | – | – | – | – | –
Cc1cc(N(CCC#N)CCC#N)ccc1/C(N=Nc1cccc([N+](=O)[O-])c1)=N/NC(=O)c1cc(Cl)ccc1O | 40.2 | > 100 | 38.8 | 93.6 | 56.7 | 88.6 | 49.3 | 64.1 | > 100 | 26.7 | – | – | – | – | – | – | – | – | – | –
CCC1CC2CN3CCc4c([nH]c5c(-c6c(OC)ccc7c8c([nH]c67)[C@]6(C(=O)OC)CC7CC(CC)C6N(CC8)C7)c(O)ccc45)[C@](C(=O)OC)(C2)C13 (stereo not given in full) | 29.6 | 32.3 | 24.7 | 39.7 | 25.2 | 29.2 | 28 | 34.4 | 25.6 | > 100 | – | – | – | – | – | – | – | – | – | –
O=C(Oc1ccccc1)c1cc2cc(CCl)ccc2oc1=O | 27.5 | > 100 | 52.9 | 38.5 | 29.8 | 51.6 | > 100 | 42 | > 100 | > 100 | – | – | – | – | – | – | – | – | – | –
CC1C(c2ccc3c(c2)OCO3)c2cc3c(cc2OC1N1CCCC1)OCO3 (stereo not given) | > 100 | > 100 | > 100 | > 100 | 38.6 | > 100 | > 100 | > 100 | > 100 | 76.1 | – | – | – | – | – | – | – | – | – | –
COc1cc(N=NN(C)C)c(C(C)c2c3cc(OC)c(OC)cc3cc[n+]2C)cc1OC (stereo not given) | 59.5 | 54.6 | 34.4 | > 100 | > 100 | > 100 | > 100 | > 100 | > 100 | > 100 | – | – | – | – | – | – | – | – | – | –
O=C1CCCc2c1c1c(n2Cc2ccccc2)-c2ccccc2C1=O | 44.9 | 47 | 42.8 | 91.3 | 46.2 | > 100 | 39.5 | 32.1 | > 100 | > 100 | – | – | – | – | – | – | – | – | – | –
Nc1nc(Cl)cc(NCC2(CO)CCC(Cc3ccccc3)C2)n1 (stereo not given) | 40.1 | 49.8 | 28.6 | > 100 | 95.6 | > 100 | 37.4 | 72.3 | > 100 | 75.4 | – | – | – | – | – | – | – | – | – | –
CC(C)(C)[Si](C)(C)OCCCC#CCO | > 100 | > 100 | > 100 | > 100 | > 100 | > 100 | > 100 | > 100 | > 100 | > 100 | – | – | – | – | – | – | – | – | – | –
COc1ccc(C2SCC(=O)N2c2ccc(-c3ccc(-n4c(-c5ccccc5)nc5ccccc5c4=O)cc3)cc2)cc1 (stereo not given) | > 100 | 79.8 | > 100 | > 100 | > 100 | > 100 | > 100 | > 100 | > 100 | > 100 | – | – | – | – | – | – | – | – | – | –
CN(C)CCNc1ccc([N+](=O)[O-])c2nc3ccccc3c(N)c12 | 3.54 | 1.75 | 1.84 | 5.4 | > 10 | 1.66 | 2.11 | 6.55 | 3.74 | > 10 | – | – | – | – | – | – | – | – | – | –
